Results from patent US11167007B2, “FOXM1 modulators and uses thereof” (City of Hope, priority 2016, dated 2021).

Tests used:
[1] = system: FOXM1; assay: Western blot of FOXM1 levels in GT1-7 CARY cells; type: cell-based, murine; details: relative to p84 loading control, FIG. 3C
Source text: Western Blot. Cell lysates was separated on a 6% SDS page gel and transferred to a nitrocellulose membrane. The membrane was blocked for one hour in 5% skim milk dissolved in TBS-T and probed with the following antibodies ([…]): FoxM1 (rabbit, GeneTex), AR: 441 (mouse, Santa Cruz Biotechnology), β-catenin (rabbit 9562, Cell Signaling Technology), p84 (mouse, GeneTex) and actin (mouse, Santa Cruz Biotechnology). Horse radish peroxidase linked secondary antibodies were used along with ECL reagents for visualization. Western blots were quantified using Quantity One analysis software (BioRad).
It has been previously reported that thiostrepton causes decreased levels of FOXM1. Hegde et al, Nat Chem, 3(9):725-31 (2011); Gartel, Front Oncol, 3:150 (2013). […] The nuclear association between FOXM1 and β-catenin increases the transcriptional activity of both factors. Zhang et al, Cancer Cell, 20(4):427-42 (2011). β-catenin is a key AR coactivator in a variety of cells. Yang, J Biol Chem, 277(13):11336-44 (2002); Truica et al, Cancer Res, 60(17):4709-13 (2000). The inventors believed that thiostrepton could inhibit AR activity by limiting access to nuclear β-catenin via FOXM1 depletion. […] As expected, control actin protein was observed primarily in cytoplasmic fraction.

[2] = Pilot pharmacokinetic study, plasma and spinal fluid by LC-MS/MS; type: in vivo, rat
Method: Animals and Drugs. This study was carried out in strict accordance with the recommendations in the Guide for the Care and Use of Laboratory Animals of the National Institutes of Health. All experiments were performed under the IUCAC approval of City of Hope. Animals were purchased from Jackson Laboratory (Bar Harbor, Main). For the pilot pharmacokinetic experiment, nine male Sprague Dawley rats (n=3) were administered 1, 10, or 100 mg/kg intraperitoneal injections thrice per week for four weeks. One hour following the final dose, blood and spinal fluid were collected and analyzed by mass spectrometry. For the efficacy experiment, rats were divided into 3 groups (n=7) as follows: intact, castrated, and thiostrepton. Thiostrepton was dissolved in 20% DMSO and 80% PEG400 (Sigma Aldrich) and administered at a concentration of 50 mg/kg per day via an IP osmotic pump implant (Alzet). Following a treatment period of 7 days, rats were euthanized and organs harvested, weighed and processed for quantitative RT-PCR.
LC-MS/MS methods. Dried samples were resuspended in tetrahydrofuran spiked with 5 pg/μl reserpine, which was used as an instrument response control. Resuspended samples were separated with an Agilent 1290 UHPLC system (Agilent Technologies, Santa Clara, Calif.) and a Waters Acquity CSH C18 column (Waters, Millford, Mass.) using a linear gradient from 95% buffer A (0.1% formic acid in 60% water/40% acetonitrile) to 100% buffer B (0.1% formic acid in 90% isopropanol/10% acetonitrile) over 2.5 minutes at 380 μL/minute. The UHPLC column eluent was sprayed into an Agilent 6490 triple quadrupole mass spectrometer equipped with a JetStream source (Agilent Technologies). Thiostrepton was detected by monitoring fragments from the doubly charged ion (m/z 832.9) at m/z 1247.4 and 1230.3. Data was analyzed using Agilent MassHunter quantitative analysis software.
A pilot pharmacokinetic study in rats was conducted to achieve desired dosing and to determine if thiostrepton crosses the blood brain barrier. Rats (n=3/group) received low (1 mg/kg), medium (10 mg/kg), or high (100 mg/kg) doses of thiostepton by intraperitoneal (IP) injection, three times a week for four weeks. One hour after the final dose, animals were euthanized and blood and spinal fluid was collected and analyzed by LC-MS/MS (FIG. 5A).

[3] = molecular target: T1, AR (Rattus norvegicus, UniProt P15207); assay: Androgen-responsive luciferase reporter assay in L6 skeletal muscle cells; type: cell-based; details: FIG. 2B
T1 construct: endogenous in cells; host or cells: L6 myoblasts
T1 sequence (P15207 1-902): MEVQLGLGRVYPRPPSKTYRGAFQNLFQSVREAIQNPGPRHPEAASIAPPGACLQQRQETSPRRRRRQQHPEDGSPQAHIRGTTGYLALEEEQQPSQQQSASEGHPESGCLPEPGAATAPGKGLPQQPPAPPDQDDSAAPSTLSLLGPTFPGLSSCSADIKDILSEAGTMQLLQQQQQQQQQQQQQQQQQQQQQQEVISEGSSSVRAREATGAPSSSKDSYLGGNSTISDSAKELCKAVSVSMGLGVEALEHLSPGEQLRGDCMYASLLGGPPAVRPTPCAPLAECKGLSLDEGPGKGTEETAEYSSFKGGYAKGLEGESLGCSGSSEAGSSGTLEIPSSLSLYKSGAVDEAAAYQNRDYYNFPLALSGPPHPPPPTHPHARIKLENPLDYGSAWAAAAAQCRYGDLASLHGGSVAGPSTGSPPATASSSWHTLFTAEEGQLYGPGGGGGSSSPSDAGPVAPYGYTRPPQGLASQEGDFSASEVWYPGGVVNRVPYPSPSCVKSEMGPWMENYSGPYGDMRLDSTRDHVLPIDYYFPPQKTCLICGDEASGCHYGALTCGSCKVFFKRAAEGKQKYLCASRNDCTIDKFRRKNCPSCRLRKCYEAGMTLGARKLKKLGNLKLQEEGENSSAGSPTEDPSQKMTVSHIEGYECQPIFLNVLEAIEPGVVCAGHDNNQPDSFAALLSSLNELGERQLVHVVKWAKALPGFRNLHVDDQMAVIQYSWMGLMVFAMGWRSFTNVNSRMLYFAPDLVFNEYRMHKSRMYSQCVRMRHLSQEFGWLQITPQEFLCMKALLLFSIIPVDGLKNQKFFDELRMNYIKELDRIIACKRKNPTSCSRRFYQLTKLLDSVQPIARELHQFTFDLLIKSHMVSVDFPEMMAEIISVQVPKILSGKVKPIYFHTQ
Source text: Luciferase Reporter Assay. Cells were transfected using Lipofectamine Plus (Invitrogen) with a normalization plasmid (pRL-SV40, Promega) and an androgen responsive plasmid (MMTV-luciferase or PSA-luciferase) as described in Jones et al, ACS Chem Biol, 3(7):412-8 (2008), and, where indicated, with an shRNA plasmid targeting FOXM1 (adapted for mouse FOXM1 sequence targeting) a scrambled control shRNA plasmid, or ARQ24 or ARQ65 plasmids. Christensen et al, PLoS One, 8(1):e54556 (2013). The following day, cells and drugs were distributed to 96-well plates. 24 hours later, luciferase activity was assessed by a dual luciferase assay kit (Promega) on the Tecan plate reader. Samples were run in quadruplicates and a Student's t test was performed to determine significance, where p<0.05 was considered significant.
The ability of thiostrepton to inhibit AR activity in additional neuronal cells, including ReNcell CX cells PC12 cells, and in rat L6 skeletal muscle cells was examined (FIG. 2B). Donato et al, BMC Neurosci, 8:36 (2007); Yaffe, Proc Natl Acad Sci USA, 61(2):477-83 (1968).

C=C(NC(=O)C(=C)NC(=O)c1csc(C2=N[C@@H]3c4csc(n4)[C@H]4NC(=O)c5csc(n5)[C@H]([C@](C)(O)[C@@H](C)O)NC(=O)[C@H]5CSC(=N5)/C(=C/C)NC(=O)[C@H]([C@@H](C)O)NC(=O)c5csc(n5)[C@]3(CC2)NC(=O)[C@H](C)NC(=O)C(=C)NC(=O)[C@H](C)NC(=O)[C@H]([C@@H](C)CC)N[C@@H]2C=Cc3c([C@H](C)O)cc(nc3[C@H]2O)C(=O)O[C@@H]4C)n1)C(N)=O [thiostrepton]
FOXM1 levels (Western blot) [1]: slightly decreased | plasma levels ([2]; rats, 1, 10, 100 mg/kg IP three times a week for four weeks, one hour after final dose): dose-dependent increase | spinal fluid level relative to plasma ([2]; rats, IP, one hour after final dose): much lower levels than the plasma | spinal fluid concentration relative to IC50 in luciferase assay ([2]; rats, high dose): above its IC50 | levels of drug in the spinal fluid ([2]; rats, high dose (100 mg/kg) IP, one hour after final dose): measurable levels | inhibition of AR activity (luciferase) [3]: not muscle cells
